# Test results from patent US20130131161A1, “METHODS AND COMPOSITIONS FOR CARDIOVASCULAR DISEASES AND CONDITIONS” (priority 2009, published 2013).
# System: Human umbilical vein endothelial cells (HUVECs)
# Assay: eNOS activity analysis: NO, ONOO− and NO/ONOO− release from HUVECs of 50 genotyped donors in response to LA-419 (Example 2)
# Format: cell-based
# Protocol: Concurrent measurements of NO and ONOO^− were carried out with tandem electrochemical nanosensors combined into one working unit with a total diameter of 200-500 nm (FIG. 1). Their design was based on previously developed and well-characterized chemically modified carbon-fiber technology (Malinski and Taha, 1992; Lvovich and Scheeline, 1997). Each of the nanosensors was made by depositing a sensing material on the tip of a carbon fiber (length 4-5 μm, diameter 0.2-0.5 μm). The fibers were sealed with nonconductive epoxy and electrically connected to copper wires with conductive silver epoxy. A conductive film of polymeric nickel (II) tetrakis(3-methoxy-4-hydroxyphenyl)porphyrin for the NO-sensor and polymeric film of Mn (III) [2.2]paracyclophanylporphyrin was used for the ONOO^−-sensor.
# A module of NO/ONOO^− nanosensors (diameter 1-2 μm) with a platinum wire (0.1 mm) counter electrode and saturated calomel reference electrode (SCE) were applied. Differential pulse voltammetry (DPV) and amperometry were performed with a computer-based Gamry VFP600 multichannel potentiostat. DPV was used to measure the basal NO and ONOO^− concentrations, and amperometry was used to measure changes in NO and ONOO^− concentrations from its basal level with time. The DPV current at the peak potential characteristic for NO oxidation (0.65 V) and ONOO^− reduction (−0.45 V) was directly proportional to the local concentrations of these compounds in the immediate vicinity of the sensor. Linear calibration curves (current vs. concentration) were constructed for each sensor from 10 nM to 3 μM before and after measurements with aliquots of NO and ONOO^− standard solutions, respectively. The detection limit of the sensors was 1.0 nM.
# The quantification of each analyte (concentration in nM) was performed using a maximum current from amperograms and standard calibration curves. A reproducibility of measurements with nanosensors is relatively high (between 5-12%). […] The sensors were slowly raised 5±2 μm from the surface of a single endothelial cell. The eNOS agonist, calcium ionophore A23187 (CaI) as well as the different drugs were then added to the surrounding media at the cell surface with a nanoinjector that was also positioned by a computer controlled-micromanipulator.
# This example describes the genotype-specific response of the three major eNOS variants to 1 μM and 5 μM concentrations of LA-419. The three major genetic polymorphisms studied were the Glu298Asp variant (E298D or 894G→T) in exon 7 of […], the −786T→C variant in the promoter region, and the intron 4 polymorphism (VNTR). All of these variants have possible effects on the cardiovascular system and endothelial dysfunction. For this study, human umbilical vein endothelial cells (HUVECs) from 50 donors between 18 and 32 years of age were used.
# For the analysis several analysis techniques were employed. First, the effect of genotype on NO and ONOO^− release was explored within the different concentrations of LA-419 (control, 1 μM, 5 μM), calculated as the average peak release (nmols/L) of NO, ONOO^−, and NO/ONOO^−. The effect of genotype on the net increase in NO, ONOO^−, and NO/ONOO^− for LA-419 (1 μM and 5 μM) as compared to control was also measured. In addition, an analysis was done on the effect of genotype on the % change in NO, ONOO^−, and NO/ONOO^− production for LA-419 (1 μM and 5 μM), calculated as:
# % Change=[(avg. LA-419−avg. control)/(avg. control)]*100
# Finally, an evaluation was undertaken concerning the effect of genotype on the production of NO, ONOO^−, and NO/ONOO^− as the fold difference of control for LA-419 (1 μM and 5 μM), calculated as:
# Fold Difference=(avg. LA-419)/(avg. control)
# Within each calculation technique the results were compared for statistical significance using a non-parametric ANOVA Kruskal-Wallace test or a non-parametric Mann-Whitney U test. Statistical significance was set at a p-value <0.05 in a two-tailed distribution. […]
# [1] = (LA-419 5 μM)/(control), T-786C C/C, n=4
# [2] = (LA-419 5 μM)/(control), T-786C T/C & C/C, n=27
# [3] = (LA-419 5 μM)/(control), T-786C T/C, n=23
# [4] = (LA-419 5 μM)/(control), T-786C T/T & T/C, n=45
# [5] = (LA-419 5 μM)/(control), T-786C T/T, n=22
# [6] = Caucasian, (LA-419 1 μM)/(control), Combination of all G894T + T-786C genotypes but G/G + T/T, n=19
# [7] = Caucasian, (LA-419 1 μM)/(control), G894T + T-786C G/G + T/C, n=3
# [8] = Caucasian, (LA-419 1 μM)/(control), G894T + T-786C G/G + T/T, n=7
# [9] = Caucasian, (LA-419 1 μM)/(control), G894T + T-786C G/T + T/C, n=10
# [10] = Caucasian, (LA-419 1 μM)/(control), G894T + T-786C G/T + T/T, n=3
# [11] = Caucasian, (LA-419 1 μM)/(control), G894T + T-786C T/T + T/C, n=2
# [12] = Caucasian, (LA-419 1 μM)/(control), G894T G/G, n=10
# [13] = Caucasian, (LA-419 1 μM)/(control), G894T G/T & T/T, n=16
# [14] = Caucasian, (LA-419 1 μM)/(control), G894T G/T, n=13
# [15] = Caucasian, (LA-419 1 μM)/(control), G894T T/T, n=3
# [16] = Caucasian, (LA-419 1 μM)/(control), Intron 4 b/a & a/a, n=6
# [17] = Caucasian, (LA-419 1 μM)/(control), Intron 4 b/a, n=5
# [18] = Caucasian, (LA-419 1 μM)/(control), Intron 4 b/b, n=18
# [19] = Caucasian, (LA-419 1 μM)/(control), T-786C T/C & C/C, n=16
# [20] = Caucasian, (LA-419 1 μM)/(control), T-786C T/C, n=15
# [21] = Caucasian, (LA-419 1 μM)/(control), T-786C T/T, n=10
# [22] = Caucasian, (LA-419 5 μM)/(control), Combination of all G894T + T-786C genotypes but G/G + T/T, n=19
# [23] = Caucasian, (LA-419 5 μM)/(control), G894T + T-786C G/G + T/C, n=3
# [24] = Caucasian, (LA-419 5 μM)/(control), G894T + T-786C G/G + T/T, n=7
# [25] = Caucasian, (LA-419 5 μM)/(control), G894T + T-786C G/T + T/C, n=10
# [26] = Caucasian, (LA-419 5 μM)/(control), G894T + T-786C G/T + T/T, n=3
# [27] = Caucasian, (LA-419 5 μM)/(control), G894T + T-786C T/T + T/C, n=2
smiles,measurement,setting,value
"CC(=O)SC1COC2C(O[N+](=O)[O-])COC12 (stereo not drawn) [LA-419, S-(6-Nitro-oxi-hexahydro-furo[3,2-b]furan-3-1-il)thioacetate]",Fold difference NO (mean ± sd),[1],1.12 (0.06)
same,Fold difference NO/ONOO− (mean ± sd),[1],1.42 (0.13)
same,Fold difference ONOO− (mean ± sd),[1],0.79 (0.08)
same,Fold difference NO (mean ± sd),[2],1.13 (0.07)
same,Fold difference NO/ONOO− (mean ± sd),[2],1.39 (0.13)
same,Fold difference ONOO− (mean ± sd),[2],0.82 (0.06)
same,Fold difference NO (mean ± sd),[3],1.14 (0.07)
same,Fold difference NO/ONOO− (mean ± sd),[3],1.39 (0.14)
same,Fold difference ONOO− (mean ± sd),[3],0.82 (0.06)
same,Fold difference NO (mean ± sd),[4],1.15 (0.06)
same,Fold difference NO/ONOO− (mean ± sd),[4],1.44 (0.16)
same,Fold difference ONOO− (mean ± sd),[4],0.81 (0.07)
same,Fold difference NO (mean ± sd),[5],1.16 (0.06)
same,Fold difference NO/ONOO− (mean ± sd),[5],1.49 (0.18)
same,Fold difference ONOO− (mean ± sd),[5],0.79 (0.08)
same,Fold difference NO (mean ± sd),[6],1.20 (0.29)
same,Fold difference NO/ONOO− (mean ± sd),[6],1.61 (0.77)
same,Fold difference ONOO− (mean ± sd),[6],0.81 (0.16)
same,Fold difference NO (mean ± sd),[7],1.13 (0.03)
same,Fold difference NO/ONOO− (mean ± sd),[7],1.27 (0.04)
same,Fold difference ONOO− (mean ± sd),[7],0.89 (0.02)
same,Fold difference NO (mean ± sd),[8],1.25 (0.12)
same,Fold difference NO/ONOO− (mean ± sd),[8],1.63 (0.72)
same,Fold difference ONOO− (mean ± sd),[8],0.84 (0.22)
same,Fold difference NO (mean ± sd),[9],1.29 (0.37)
same,Fold difference NO/ONOO− (mean ± sd),[9],1.75 (0.91)
same,Fold difference ONOO− (mean ± sd),[9],0.81 (0.16)
same,Fold difference NO (mean ± sd),[10],1.08 (0.03)
same,Fold difference NO/ONOO− (mean ± sd),[10],1.21 (0.04)
same,Fold difference ONOO− (mean ± sd),[10],0.90 (0.06)
same,Fold difference NO (mean ± sd),[11],1.11 (0.36)
same,Fold difference NO/ONOO− (mean ± sd),[11],2.25 (1.17)
same,Fold difference ONOO− (mean ± sd),[11],0.52 (0.11)
same,Fold difference NO (mean ± sd),[12],1.21 (0.12)
same,Fold difference NO/ONOO− (mean ± sd),[12],1.52 (0.61)
same,Fold difference ONOO− (mean ± sd),[12],0.86 (0.18)
same,Fold difference NO (mean ± sd),[13],1.21 (0.32)
same,Fold difference NO/ONOO− (mean ± sd),[13],1.68 (0.83)
same,Fold difference ONOO− (mean ± sd),[13],0.79 (0.17)
same,Fold difference NO (mean ± sd),[14],1.24 (0.33)
same,Fold difference NO/ONOO− (mean ± sd),[14],1.63 (0.82)
same,Fold difference ONOO− (mean ± sd),[14],0.83 (0.15)
same,Fold difference NO (mean ± sd),[15],1.08 (0.26)
same,Fold difference NO/ONOO− (mean ± sd),[15],1.90 (1.02)
same,Fold difference ONOO− (mean ± sd),[15],0.63 (0.19)
same,Fold difference NO (mean ± sd),[16],1.25 (0.33)
same,Fold difference NO/ONOO− (mean ± sd),[16],1.52 (0.70)
same,Fold difference ONOO− (mean ± sd),[16],0.86 (0.10)
same,Fold difference NO (mean ± sd),[17],1.28 (0.35)
same,Fold difference NO/ONOO− (mean ± sd),[17],1.58 (0.77)
same,Fold difference ONOO− (mean ± sd),[17],0.85 (0.12)
same,Fold difference NO (mean ± sd),[18],1.21 (0.25)
same,Fold difference NO/ONOO− (mean ± sd),[18],1.69 (0.80)
same,Fold difference ONOO− (mean ± sd),[18],0.79 (0.20)
same,Fold difference NO (mean ± sd),[19],1.22 (0.31)
same,Fold difference NO/ONOO− (mean ± sd),[19],1.69 (0.82)
same,Fold difference ONOO− (mean ± sd),[19],0.79 (0.17)
same,Fold difference NO (mean ± sd),[20],1.24 (0.32)
same,Fold difference NO/ONOO− (mean ± sd),[20],1.72 (0.84)
same,Fold difference ONOO− (mean ± sd),[20],0.79 (0.17)
same,Fold difference NO (mean ± sd),[21],1.20 (0.13)
same,Fold difference NO/ONOO− (mean ± sd),[21],1.50 (0.62)
same,Fold difference ONOO− (mean ± sd),[21],0.86 (0.18)
same,Fold difference NO (mean ± sd),[22],1.13 (0.06)
same,Fold difference NO/ONOO− (mean ± sd),[22],1.37 (0.10)
same,Fold difference ONOO− (mean ± sd),[22],0.83 (0.06)
same,Fold difference NO (mean ± sd),[23],1.19 (0.02)
same,Fold difference NO/ONOO− (mean ± sd),[23],1.47 (0.08)
same,Fold difference ONOO− (mean ± sd),[23],0.81 (0.03)
same,Fold difference NO (mean ± sd),[24],1.19 (0.08)
same,Fold difference NO/ONOO− (mean ± sd),[24],1.47 (0.14)
same,Fold difference ONOO− (mean ± sd),[24],0.81 (0.04)
same,Fold difference NO (mean ± sd),[25],1.11 (0.05)
same,Fold difference NO/ONOO− (mean ± sd),[25],1.33 (0.06)
same,Fold difference ONOO− (mean ± sd),[25],0.84 (0.04)
same,Fold difference NO (mean ± sd),[26],1.14 (0.06)
same,Fold difference NO/ONOO− (mean ± sd),[26],1.39 (0.14)
same,Fold difference ONOO− (mean ± sd),[26],0.83 (0.11)
same,Fold difference NO (mean ± sd),[27],1.12 (0.09)
same,Fold difference NO/ONOO− (mean ± sd),[27],1.29 (0.01)
same,Fold difference ONOO− (mean ± sd),[27],0.87 (0.06)
same,Fold difference NO (mean ± sd),"Caucasian, (LA-419 5 μM)/(control), G894T G/G, n=10",1.19 (0.07)
